US20100062078A1, “PHARMACEUTICAL COMPOSITION FOR TREATING CANCER AND THE SIGNALING PATHWAY THEREOF” (priority 2008, published 2010)

How the values were obtained:
Type in all cases: cell-based, human
LNCap cells [1] = assay: Cell cycle analysis (PI flow cytometry); settings: inhibitor pretreatment
Description: The ovarian cancer cells and the prostate cancer cells respectively were treated with protoapigenone at different concentrations (0, 2.5, 5 and 10 μM) for 24 hours and 6 hours (or 12 hours). These cells were harvested by trypsin and fixed with 70% ethanol for 1 hour, washed with phosphate buffered saline (PBS) twice, and resuspended in propidium iodide (PI)/RNase A solution for 30 minutes. In accordance with the mechanism of DNA stained with propidium iodide, the cell cycle and sub-G1 distribution were detected by the FACScan flow cytometry (Becton Dickinson, San Jose, Calif.), and data analysis was done with CellQuest software (BD Bioscience).

LNCap cells [2] = assay: Protoapigenone-induced apoptosis with kinase inhibitor pretreatment
Description: Human prostate cancer cell line LNCap used in the present invention was purchased from ATCC, Manassas, Va. and was cultured in RPMI 1640 medium supplemented with 10% FBS and penicillin/streptomycin/amphotericin B. LNCap cells were treated with 2.5, 5 and 10 μM protoapigenone respectively and were analyzed. In some experiments, LNCap cells were treated with p38 mitogen-activated protein kinase (MAPK) inhibitor SB203580 or c-Jun NH2-terminal kinase (JNK) ½ inhibitor SP600125 for one hour before protoapigenone treatment.

LNCap = assay: XTT cell proliferation assay (growth inhibition); settings: inhibitor pretreatment, then protoapigenone for 12 hours
Description: (§1) Cells were seeded at 7×10^3 per well in 96-well culture plates before treatment with different concentrations of protoapigenone for 12, 24 and/or 48 hours. Next, the cytotoxicity of protoapigenone was determined using XTT cell proliferation assay (Sigma, St. Louis, Mo.). The absorbance of wavelength at 490 nm (OD490) and 650 nm (OD650) were determined respectively by enzyme-linked immunosorbent assay (ELISA) reader, and 50% of inhibitory concentration (IC50) was calculated by the value of OD490-OD650. In addition, in order to evaluate the long-term effect, the cells were treated with different concentration of protoapigenone for 3 hours, then were incubated with fresh medium for 14 days so as to form colonies. Finally, the cells were stained with crystal violet and were observed under the microscope.

p38 MAPK = assay: Immunoblotting, phosphorylation in LNCap cells; settings: LNCap pretreated 1 hour with inhibitor, then protoapigenone 1 hour
Excerpt: The concentration of protein supernatant was further determined using the Bio-Rad protein assay kit (Bio-Rad Laboratories, Hercules, Calif.). Whole cell lysates were separated on polyacrylamide sodium dodecyl sulfate (SDS) gels and the proteins were transferred onto the nitrocellulose membrane. Proteins were detected sequentially by the specific primary antibodies, followed by peroxidase-conjugated secondary antibodies, and visualized by the Enhanced chemiluminescence detection system (Amersham, N.J.).

MDAH-2774 = assay: XTT cell proliferation assay (cytotoxicity)
Description: as §1

C[S+]([O-])c1ccc(-c2nc(-c3ccncc3)c(-c3ccc(F)cc3)[nH]2)cc1 (stereo not drawn) [SB203580, reference compound]
effect of inhibitor on protoapigenone-induced S and G2/M phases arrest (LNCap cells [1]): significantly attenuates
protoapigenone-induced apoptotic percentage in presence of inhibitor (LNCap cells [2]): decreased
survival rate of LNCap cells vs cells only treated with protoapigenone (LNCap): higher
protoapigenone-induced phosphorylation (activation) of p38 MAPK in presence of inhibitor (p38 MAPK): blocked

N.N.[Cl][Pt][Cl] [cisplatin, cis-diamminedichloridoplatinum (II), reference compound]
inhibition of cell growth (MDAH-2774; MDAH-2774, 5 μM cisplatin): 28.48%
inhibition of cell growth (MDAH-2774; MDAH-2774, 10 μM cisplatin): 36.91%
